Target: T1, JAK3 (h) (Homo sapiens, UniProt P52333)
T1 construct: purchased Millipore UK Ltd (contract assay service)
T1 sequence (P52333 1-1124): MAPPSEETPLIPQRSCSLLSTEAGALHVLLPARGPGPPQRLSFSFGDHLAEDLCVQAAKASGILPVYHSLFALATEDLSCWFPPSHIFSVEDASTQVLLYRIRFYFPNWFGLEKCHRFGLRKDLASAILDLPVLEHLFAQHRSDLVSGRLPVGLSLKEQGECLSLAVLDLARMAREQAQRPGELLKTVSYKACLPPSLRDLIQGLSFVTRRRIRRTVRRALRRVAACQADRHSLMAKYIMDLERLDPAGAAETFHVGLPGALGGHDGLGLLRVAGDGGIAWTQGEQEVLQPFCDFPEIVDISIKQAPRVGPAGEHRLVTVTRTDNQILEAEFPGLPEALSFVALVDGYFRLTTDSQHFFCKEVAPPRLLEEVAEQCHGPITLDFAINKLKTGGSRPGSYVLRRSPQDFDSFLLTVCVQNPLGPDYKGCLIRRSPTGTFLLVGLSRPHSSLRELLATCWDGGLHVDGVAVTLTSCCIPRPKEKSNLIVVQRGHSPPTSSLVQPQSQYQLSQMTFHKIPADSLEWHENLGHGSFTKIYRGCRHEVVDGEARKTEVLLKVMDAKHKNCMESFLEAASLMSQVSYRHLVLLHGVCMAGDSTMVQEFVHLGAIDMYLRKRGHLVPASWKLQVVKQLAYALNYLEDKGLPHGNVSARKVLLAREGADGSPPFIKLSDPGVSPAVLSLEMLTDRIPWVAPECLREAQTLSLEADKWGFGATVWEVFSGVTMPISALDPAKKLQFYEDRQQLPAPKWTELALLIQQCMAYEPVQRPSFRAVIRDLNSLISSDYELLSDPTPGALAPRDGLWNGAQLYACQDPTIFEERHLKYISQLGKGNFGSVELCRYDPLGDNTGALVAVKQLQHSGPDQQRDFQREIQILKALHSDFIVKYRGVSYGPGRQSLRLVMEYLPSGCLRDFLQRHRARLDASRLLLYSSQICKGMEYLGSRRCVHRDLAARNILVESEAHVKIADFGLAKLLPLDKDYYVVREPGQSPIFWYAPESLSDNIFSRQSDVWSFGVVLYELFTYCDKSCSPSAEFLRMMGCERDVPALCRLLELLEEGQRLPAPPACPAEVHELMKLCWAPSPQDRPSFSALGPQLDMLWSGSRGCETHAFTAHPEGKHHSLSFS
Test: JAK3 (h) kinase assay
Type: biochemical
Protocol: Kinase assays can be performed by measurement of incorporation of γ-33P ATP into immobilized myelin basic protein (MBP). High binding white 384 well plates (Greiner) are coated with MBP (Sigma #M-1891) by incubation of 60 μL/well of 20 μg/mL MBP in Tris-buffered saline (TBS; 50 mM Tris pH 8.0, 138 mM NaCl, 2.7 mM KCl) for 24 h at 4° C. Plates are washed 3× with 100 μL TBS. Kinase reactions are carried out in a total volume of 34 μL in kinase buffer (according to the need to make, for example, 5 mM Hepes pH 7.6, 15 mM NaCl, 0.01% bovine gamma globulin (Sigma #I-5506), 10 mM MgCl2, 1 mM DTT, 0.02% TritonX-100). Compound dilutions are performed in DMSO and added to assay wells to a final DMSO concentration of 1%. Each data point is measured in duplicate, and at least two duplicate assays are performed for each individual compound determination. Enzyme is added to final concentrations of 10 nM or 20 nM, for example. A mixture of unlabeled ATP and γ-33P ATP is added to start the reaction (2×10^6 cpm of γ-33P ATP per well (3000 Ci/mmole) and 10 μM unlabeled ATP, typically. The reactions are carried out for 1 h at room temperature with shaking Plates are washed 7× with TBS, followed by the addition of 50 μL/well scintillation fluid (Wallac). Plates are read using a Wallac Trilux counter. This is only one format of such assays; various other formats are possible, as known to one skilled in the art.
The above assay procedure can be used to determine the IC50 for inhibition and/or the inhibition constant, Ki. The IC50 is defined as the concentration of compound required to reduce the enzyme activity by 50% under the condition of the assay. The IC50 value is estimated by preparing a 10 point curve using a ½ log dilution series (for example, a typical curve may be prepared using the following compound concentrations: 3 μM, 1 μM, 0.3 μM, 0.1 μM, 0.03 μM, 0.01 μM, 0.003 μM, 0.001 μM, 0.0003 μM and 0 μM).
JAK3 (h) is incubated with 8 mM MOPS pH 7.0, 0.2 mM EDTA, 500 μM GGEEEEYFELVKKKK, 10 mM MgAcetate and [γ-^33P-ATP] (specific activity approx. 500 cpm/pmol, concentration as required). The reaction is initiated by the addition of the MgATP mix. After incubation for 40 minutes at room temperature, the reaction is stopped by the addition of 3% phosphoric acid solution. 10 μL of the reaction is then spotted onto a P30 filtermat and washed three times for 5 minutes in 75 mM phosphoric acid and once in methanol prior to drying and scintillation counting.
The kinase assays described herein were performed at Millipore UK Ltd, Dundee Technology Park, Dundee DD2 1SW, UK.

Cc1c2ccc(Nc3ncc(Cl)c(NC4CCN(c5ccc(C#N)nn5)CC4)n3)cc2nn1C [Ex. 12, 6-(4-((5-chloro-2-((2,3-dimethyl-2H-indazol-6-yl)amino)pyrimidin-4-yl)amino)piperidin-1-yl)pyridazine-3-carbonitrile]
IC50: 0.02 µM

Cc1nn(C)cc1Nc1ncc(Cl)c(NC2CCN(c3ccc(C#N)nn3)CC2)n1 [Ex. 11, 6-(4-((5-chloro-2-((1,3-dimethyl-1H-pyrazol-4-yl)amino)pyrimidin-4-yl)amino)piperidin-1-yl)pyridazine-3-carbonitrile]
IC50: 0.263 µM

CN(c1nc(Nc2cnn(C)c2)ncc1Cl)C1CCN(c2ccc(C#N)cn2)CC1 [Ex. 5, 6-(4-((5-chloro-2-((1-methyl-1H-pyrazol-4-yl)amino)pyrimidin-4-yl) (methyl)amino)piperidin-1-yl)nicotinonitrile]
IC50: 0.013 µM

Cc1cc(Nc2ncc(Cl)c(NC3CCN(c4ccc(C#N)nn4)CC3)n2)nn1C [Ex. 13, 6-(4-((5-chloro-2-((1,5-dimethyl-1H-pyrazol-3-yl)amino)pyrimidin-4-yl)amino)piperidin-1-yl)pyridazine-3-carbonitrile]
IC50: 0.073 µM

Cc1nn(C)cc1Nc1ncc(Cl)c(NC2CCN(c3ccc(C#N)cn3)CC2)n1 [Ex. 10, 6-(4-((5-chloro-2-((1,3-dimethyl-1H-pyrazol-4-yl)amino)pyrimidin-4-yl)amino)piperidin-1-yl)nicotinonitrile]
IC50: 0.082 µM

Cc1c2ccc(Nc3ncc(Cl)c(NC4CCN(c5ccc(C#N)cn5)CC4)n3)cc2nn1C [Ex. 4]
IC50: 0.021 µM

From US10059689B2, “Substituted heteroaryl compounds and methods of use” (Sunshine Lake Pharma Co., Ltd., priority 2014, dated 2018)
